Test results: patent US20250027079A1 (priority 2020, published 2025)
Structures can show the parent of a compound that is named as a salt. Where two headings read alike, the source gives them in different places. {AF594} = Alexa Fluor 594 dye

Experiments:
[1] = tested on: CLso; assay type: in vivo, Candidatus Liberibacter solanacearum; details: for tuber disease symptoms (proportion of symptomatic tubers) compared to CLso infected Control tubers: 8 week trial (FIG. 11C); for foliar disease symptoms (foliar symptom ranking) / products with the greatest foliar symptom reduction: 8 week trial; for foliar disease symptoms (foliar symptom ranking): soil application (FIG. 11B); for products with the greatest foliar symptom reduction: comparison among all products (FIG. 11B)
[2] = tested on: wDi cells
[3] = tested on: wDi gyrA gene; assay type: cell-based, Wolbachia-Diaphorina
[4] = tested on: CLas; assay type: in vivo, Candidatus Liberibacter asiaticus
[5] = tested on: CLas LigA gene; assay type: in vivo, Candidatus Liberibacter asiaticus
[6] = tested on: CLas; assay type: in vivo, Candidatus Liberibacter asiaticus; details: for Liberibacter repression (percent change in CLas titer): CLas-infected Citrus trees, root infusion 5 mL of 5 μM; for effect on quantity of the bacterium (Liberibacter titer) in infected Citrus trees: FANA 5 μM, streptomycin sulfate 5 mg/mL, sampling 2, 7, 14, 30 days (FIG. 5)
[7] = tested on: CLas; assay type: in vivo, Candidatus Liberibacter asiaticus; remark: listed apart in the source
[8] = tested on: D. citri adults; design: species or system Diaphorina citri; details: in vivo
[9] = tested on: CLso; assay type: in vivo, Candidatus Liberibacter solanacearum; details: CLso infected potato, soil applied drench, one gallon pots (FIG. 8); infected untreated control ave. 39, uninfected healthy 66 cm

Compound: CATTTTGTATATGCGAGGACA (FANA modification, further chemistry not given here) [CLsoDNAB-4, FANA ASO, CLso DnaB-Helicase C]
- tuber disease symptoms (proportion of symptomatic tubers) compared to CLso infected Control tubers [1]: significantly reduced
- foliar disease symptoms (foliar symptom ranking) [1]: significantly reduced

Compound: TATTACGATAGATCCTCGACC (FANA modification, further chemistry not given here) [CLso-2Gyr-Ext-3, FANA ASO, CLso Gyrase A]
- foliar disease symptoms (foliar symptom ranking) [1]: significantly reduced

Compound: TGGTATGGCAACCAATATTCC (FANA modification, further chemistry not given here) [gyrA-FANA, FANA oligo complementary to the mRNA of Wolbachia-Diaphorina, wDi gyrA gene]
- number of viable wDi cells (wDi copy number, PMA-qPCR) ([2]; isolated wDi cells, 5 μM, four days, versus untreated or scramble control (FIG. 3)): greatly reduced
- reduction in the amount of the target mRNA (wDi gyrA) compared to untreated cells ([3]; S2-wDi cells, 5 μM, seven days post-treatment, qRT-PCR (FIG. 2A)): 30%
- wDi gyrA transcript level compared to cells treated with the scramble control ([3]; S2-wDi cells, 5 μM, seven days, p=0.009): significantly lower

Compound: CAAATCAGGTATAGCACGGCC (FANA modification, further chemistry not given here) [CLso-2Gyr, FANA ASO, CLso Gyrase A]
- foliar disease symptoms (foliar symptom ranking) [1]: significantly reduced

Compound: GGGAATATTCGTCGCCATACC (FANA modification, further chemistry not given here) [CLso-4Gyr, FANA ASO, CLso Gyrase A]
- foliar disease symptoms (foliar symptom ranking) [1]: significantly reduced

Compound: AUAUCCTTGTCGTATCCCAGU (FANA modification, further chemistry not given here) [scramble control FANA, reference compound]
- CLas density (copy number) in psyllids ([4]; in vivo): No difference
- number of viable wDi cells (wDi copy number, PMA-qPCR) [2]: high wDi copy number
- toxicity of the FANA chemistry to the bacterial cells or the Drosophila S2 cells [2]: not toxic
- expression of the wDi gyrA gene versus untreated cells [3]: No significant difference
- amount of CLas LygA mRNA versus untreated psyllids ([5]; in vivo): no significant difference

Compound: CGGCACAGCAATTAGAACGTC (FANA modification, further chemistry not given here) [LigA-FANA, FANA antisense oligo designed to target the CLas NAD-dependent DNA Ligase A gene]
- Liberibacter repression (percent change in CLas titer) ([6]; seven days post treatment (FIG. 5)): 51.6%
- Liberibacter repression (percent change in CLas titer) ([6]; two days post treatment (FIG. 5)): 81%
- persistence of the suppression effect ([6]; root infusion, sampling period): 30 days
- effect on quantity of the bacterium (Liberibacter titer) in infected Citrus trees ([6]; root infusion): significantly reduced
- CLas density (copy number) in psyllids ([4]; D. citri adults, artificial diet 5 μM, seven days post-treatment, qPCR of 16S rRNA gene (FIG. 4), versus untreated psyllids): significantly lower
- success of treated psyllids in transmitting the pathogen into citrus plants compared to untreated insects ([7]; psyllids treated seven days, 15 days inoculation access on Citrus macrophylla seedlings, p=0.018): less successful in transmitting the pathogen
- CLas copy number detected in the citrus plants exposed to the treated psyllids ([7]; seedlings sampled three months later (FIG. 7)): significantly lower
- decrease of expression of the bacterial target gene (CLas LigA) compared to untreated psyllids ([5]; D. citri adults fed on excised Citrus leaves that took up 5 μM FANA solution, seven days, qRT-PCR (FIG. 2B)): 75%
- CLas LigA transcript level compared to insects treated with the scramble control ([5]; D. citri adults, 5 μM via leaves, seven days, p=0.009): significantly lower

Compound: fluorophore-tagged FANA oligo control: FANA ASO with scramble sequence [SEQ ID NO: 1 and SEQ ID NO: 2] tagged with Alexa Fluor 594 at its 5′ end (chain 1 ACTGGGATACGACAAGGATAT; chain 2 TCTTGGAACAGCATAGGGACA; 5' {AF594}, sugars by position and backbone not given here; FANA ASO)
- localization of the oligo in psyllid alimentary canal [8]: detected mainly in the psyllid esophagus, filter chamber and anterior midgut

Compound: TGTATATGCGAGGACATCGTC (FANA modification, further chemistry not given here) [CLso-DnaB-7, FANA ASO, CLso DnaB-Helicase C]
- foliar disease symptoms (foliar symptom ranking) [1]: significantly reduced

Compound: GCATCATTATTCACTAGGATAG (FANA modification, further chemistry not given here) [CLsoDNAB-1, FANA ASO, CLso DnaB-Helicase C]
- products with the greatest foliar symptom reduction [1]: most symptom reduction
- foliar disease symptoms (foliar symptom ranking) [1]: significantly reduced

Compound: GATTGAAGGGCAGGGGAATTC (chemistry not given here)
- foliar disease symptoms (foliar symptom ranking) [1]: significantly reduced

Compound: [H]/N=C(/N)N[C@H]1[C@H](O)[C@@H](O)[C@H](O[C@@H]2O[C@@H](C)[C@](O)(C=O)[C@H]2O[C@@H]2O[C@@H](CO)[C@H](O)[C@@H](O)[C@@H]2NC)[C@@H](N/C(N)=N\[H])[C@@H]1O [streptomycin sulfate, reference compound]
- effect on quantity of the bacterium (Liberibacter titer) in infected Citrus trees ([6]; root infusion): did not significantly reduced

Compound: TTGTCCAGCCATATCAATAGC (FANA modification, further chemistry not given here) [CLsoDnaB-5, FANA ASO, CLso DnaB-Helicase C]
- foliar disease symptoms (foliar symptom ranking) [1]: significantly reduced

Compound: TATGGAAACAGCCTCAGATGC (FANA modification, further chemistry not given here) [CLsoDNAB-2, FANA ASO, CLso DnaB-Helicase C]
- tuber disease symptoms (proportion of symptomatic tubers) compared to CLso infected Control tubers [1]: significantly reduced
- foliar disease symptoms (foliar symptom ranking) [1]: significantly reduced

Compound: ATAACCTTGACGATCTGATTC (FANA modification, further chemistry not given here) [CLso-2 Gyr-Ext-2, FANA ASO, CLso Gyrase-A]
- plant growth, average height [9]: 51 centimeters
- products with the greatest foliar symptom reduction [1]: most symptom reduction
- foliar disease symptoms (foliar symptom ranking) [1]: significantly reduced

Compound: TAGTTCCGATTTGTATGCATC (FANA modification, further chemistry not given here) [CLsoDnaB-6, FANA ASO, CLso DnaB-Helicase C]
- foliar disease symptoms (foliar symptom ranking) [1]: significantly reduced

Compound: GAAGAACGGGCGAACTTTTTG (chemistry not given here) [L. solanacearum CLso2 -GyrA host Potato]
- plant growth, average height [9]: 51 centimeters
- foliar disease symptoms (foliar symptom ranking) [1]: significantly reduced

Compound: AATAAACGCAATGACCAATCC (FANA modification, further chemistry not given here) [CLso-1 GyrA-Ext-1, FANA ASO, CLso Gyrase-A]
- plant growth, average height [9]: 51 centimeters
- foliar disease symptoms (foliar symptom ranking) [1]: significantly reduced

Compound: TTCTATCAGGGTAAATCGCTC (FANA modification, further chemistry not given here) [CLso-2 Gyr-Ext-4, FANA ASO, CLso Gyrase-A]
- plant growth, average height [9]: 51 centimeters
- tuber disease symptoms (proportion of symptomatic tubers) compared to CLso infected Control tubers [1]: significantly reduced
- foliar disease symptoms (foliar symptom ranking) [1]: significantly reduced

Compound: CGATTAAAAGCTTGTCCAGCC (FANA modification, further chemistry not given here) [CLsoDNAB-3, FANA ASO, CLso DnaB-Helicase C]
- foliar disease symptoms (foliar symptom ranking) [1]: significantly reduced
